Reference: patent US7759331B2, “Pyridine-containing macroheterococylic compounds as kinase inhibitors” (Janssen Pharmaceutica NV, priority 2006, dated 2010)

What was measured:
Experiment in all cases: Protein kinase selectivity panel
Type in all cases: biochemical
Conditions in all cases: 1.0 μM compound, 10 μM ATP
Yes(h) = target: T1, Yes(h) (Homo sapiens, UniProt P07947)
T1 construct: purchased Upstate Cell Signaling Solutions (KinaseProfiler Selectivity Screening Service)
Procedure: (§1) Protein kinase selectivity assays were performed as described in the scientific literature (Davies, S. P., et al., Biochem. J. 2000, 351, 95-105). Briefly, protein kinases were assayed for their ability to phosphorylate the appropriate peptide/protein substrates in the presence of 1.0 μM compound. Assays were done using 10 μM ATP and were linear with respect to time. The protein kinase selectivity assays were performed by Upstate Cell Signaling Solutions using Upstate's KinaseProfiler™ Selectivity Screening Service.

ROCK-II(h) = ROCK-II(h) (Homo sapiens, UniProt O75116)
Procedure: as §1

IGF-1R(h) = IGF-1R(h) (Homo sapiens, UniProt P08069)
Procedure: as §1

ZAP-70(h) = target: T2, ZAP-70(h) (Homo sapiens, UniProt P43403)
T2 construct: purchased Upstate Cell Signaling Solutions (KinaseProfiler Selectivity Screening Service)
T2 sequence (P43403 1-619): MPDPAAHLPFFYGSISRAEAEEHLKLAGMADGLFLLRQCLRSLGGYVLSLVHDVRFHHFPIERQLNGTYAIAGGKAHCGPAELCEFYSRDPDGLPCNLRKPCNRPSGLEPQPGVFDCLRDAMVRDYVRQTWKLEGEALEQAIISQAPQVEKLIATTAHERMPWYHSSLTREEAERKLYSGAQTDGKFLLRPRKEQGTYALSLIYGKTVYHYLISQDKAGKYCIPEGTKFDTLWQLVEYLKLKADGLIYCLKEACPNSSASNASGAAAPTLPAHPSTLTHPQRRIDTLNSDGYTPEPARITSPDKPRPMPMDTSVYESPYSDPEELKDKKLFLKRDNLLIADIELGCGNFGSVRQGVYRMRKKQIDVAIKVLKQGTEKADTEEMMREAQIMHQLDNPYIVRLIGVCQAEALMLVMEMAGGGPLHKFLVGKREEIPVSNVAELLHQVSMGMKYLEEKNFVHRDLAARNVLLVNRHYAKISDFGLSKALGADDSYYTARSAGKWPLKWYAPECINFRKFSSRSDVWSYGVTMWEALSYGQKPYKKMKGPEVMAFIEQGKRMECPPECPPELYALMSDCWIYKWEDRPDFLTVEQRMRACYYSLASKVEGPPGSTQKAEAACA
Procedure: as §1

TrkB(h) = TrkB(h) (Homo sapiens, UniProt Q16620)
Procedure: as §1

Flt3(h) = target: T3, Flt3(h) (Homo sapiens, UniProt P36888)
T3 sequence (P36888 27-993): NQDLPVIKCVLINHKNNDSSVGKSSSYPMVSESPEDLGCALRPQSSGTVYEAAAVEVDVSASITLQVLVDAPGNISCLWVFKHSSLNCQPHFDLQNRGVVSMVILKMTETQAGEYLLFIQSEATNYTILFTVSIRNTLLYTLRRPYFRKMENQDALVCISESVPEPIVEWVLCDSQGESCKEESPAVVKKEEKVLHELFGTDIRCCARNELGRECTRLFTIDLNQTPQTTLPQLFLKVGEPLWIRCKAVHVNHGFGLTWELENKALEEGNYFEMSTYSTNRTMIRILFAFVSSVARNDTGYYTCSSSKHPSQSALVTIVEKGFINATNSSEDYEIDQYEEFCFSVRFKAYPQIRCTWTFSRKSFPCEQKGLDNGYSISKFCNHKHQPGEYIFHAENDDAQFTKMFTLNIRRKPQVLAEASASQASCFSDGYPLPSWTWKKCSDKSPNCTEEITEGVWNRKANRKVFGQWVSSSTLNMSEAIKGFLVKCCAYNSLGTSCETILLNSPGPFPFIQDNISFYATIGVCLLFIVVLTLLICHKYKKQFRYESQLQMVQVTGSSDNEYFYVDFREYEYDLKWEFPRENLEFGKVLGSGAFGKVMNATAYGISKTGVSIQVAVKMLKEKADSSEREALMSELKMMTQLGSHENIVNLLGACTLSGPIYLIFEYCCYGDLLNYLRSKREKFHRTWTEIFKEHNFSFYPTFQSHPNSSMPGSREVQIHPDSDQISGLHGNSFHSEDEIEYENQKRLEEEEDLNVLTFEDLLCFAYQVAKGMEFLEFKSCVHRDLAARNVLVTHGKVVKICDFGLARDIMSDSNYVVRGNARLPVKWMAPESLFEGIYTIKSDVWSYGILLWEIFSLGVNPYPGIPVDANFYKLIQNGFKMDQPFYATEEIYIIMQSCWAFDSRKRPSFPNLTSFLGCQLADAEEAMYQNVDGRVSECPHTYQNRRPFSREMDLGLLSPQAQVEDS
Procedure: as §1

PAR-1Bα(h) = PAR-1Bα(h) (Homo sapiens, UniProt Q7KZI7)
Procedure: as §1

PDK1(h) = target: T4, PDK1(h) (Homo sapiens, UniProt O15530)
T4 sequence (O15530 1-556): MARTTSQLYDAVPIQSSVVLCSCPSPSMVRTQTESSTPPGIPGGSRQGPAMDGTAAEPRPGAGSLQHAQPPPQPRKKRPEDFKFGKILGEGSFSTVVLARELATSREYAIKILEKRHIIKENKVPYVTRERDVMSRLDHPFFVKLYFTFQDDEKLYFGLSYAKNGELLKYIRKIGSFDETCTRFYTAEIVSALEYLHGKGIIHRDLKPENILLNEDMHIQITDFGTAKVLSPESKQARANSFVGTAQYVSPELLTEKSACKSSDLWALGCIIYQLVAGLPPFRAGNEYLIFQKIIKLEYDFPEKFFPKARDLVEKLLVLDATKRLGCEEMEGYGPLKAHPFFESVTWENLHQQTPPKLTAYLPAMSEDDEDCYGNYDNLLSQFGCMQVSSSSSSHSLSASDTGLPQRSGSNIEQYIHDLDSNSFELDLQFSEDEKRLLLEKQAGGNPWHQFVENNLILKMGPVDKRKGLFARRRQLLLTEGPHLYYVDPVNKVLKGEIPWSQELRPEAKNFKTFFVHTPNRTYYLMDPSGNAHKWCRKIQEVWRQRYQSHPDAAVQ
Procedure: as §1

CDK6/cyclinD3(h) = CDK6/cyclinD3(h) (Homo sapiens, UniProt Q00534)
Procedure: as §1

Chain of TrkB(h) (Q16620 32-822): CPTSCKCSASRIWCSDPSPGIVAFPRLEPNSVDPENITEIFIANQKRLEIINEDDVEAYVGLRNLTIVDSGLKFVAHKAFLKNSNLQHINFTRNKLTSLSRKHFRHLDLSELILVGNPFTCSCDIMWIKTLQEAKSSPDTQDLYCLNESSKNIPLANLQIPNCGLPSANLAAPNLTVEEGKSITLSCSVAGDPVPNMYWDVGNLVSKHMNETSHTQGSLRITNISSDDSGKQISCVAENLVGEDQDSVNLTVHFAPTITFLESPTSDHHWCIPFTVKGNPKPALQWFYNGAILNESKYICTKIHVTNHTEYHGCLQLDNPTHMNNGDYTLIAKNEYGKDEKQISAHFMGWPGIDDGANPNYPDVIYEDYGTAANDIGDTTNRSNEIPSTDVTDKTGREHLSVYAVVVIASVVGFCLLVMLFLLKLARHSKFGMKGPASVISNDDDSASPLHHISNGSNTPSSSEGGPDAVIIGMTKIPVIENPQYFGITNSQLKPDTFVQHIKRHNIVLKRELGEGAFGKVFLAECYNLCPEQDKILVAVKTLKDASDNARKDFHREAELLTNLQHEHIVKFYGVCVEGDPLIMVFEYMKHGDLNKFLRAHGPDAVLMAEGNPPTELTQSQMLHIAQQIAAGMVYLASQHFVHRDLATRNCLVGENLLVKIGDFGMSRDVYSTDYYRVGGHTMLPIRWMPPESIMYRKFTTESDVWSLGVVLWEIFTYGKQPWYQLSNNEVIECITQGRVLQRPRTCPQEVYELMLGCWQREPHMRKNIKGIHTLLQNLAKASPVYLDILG
Chain of ROCK-II(h) (O75116 whole entry): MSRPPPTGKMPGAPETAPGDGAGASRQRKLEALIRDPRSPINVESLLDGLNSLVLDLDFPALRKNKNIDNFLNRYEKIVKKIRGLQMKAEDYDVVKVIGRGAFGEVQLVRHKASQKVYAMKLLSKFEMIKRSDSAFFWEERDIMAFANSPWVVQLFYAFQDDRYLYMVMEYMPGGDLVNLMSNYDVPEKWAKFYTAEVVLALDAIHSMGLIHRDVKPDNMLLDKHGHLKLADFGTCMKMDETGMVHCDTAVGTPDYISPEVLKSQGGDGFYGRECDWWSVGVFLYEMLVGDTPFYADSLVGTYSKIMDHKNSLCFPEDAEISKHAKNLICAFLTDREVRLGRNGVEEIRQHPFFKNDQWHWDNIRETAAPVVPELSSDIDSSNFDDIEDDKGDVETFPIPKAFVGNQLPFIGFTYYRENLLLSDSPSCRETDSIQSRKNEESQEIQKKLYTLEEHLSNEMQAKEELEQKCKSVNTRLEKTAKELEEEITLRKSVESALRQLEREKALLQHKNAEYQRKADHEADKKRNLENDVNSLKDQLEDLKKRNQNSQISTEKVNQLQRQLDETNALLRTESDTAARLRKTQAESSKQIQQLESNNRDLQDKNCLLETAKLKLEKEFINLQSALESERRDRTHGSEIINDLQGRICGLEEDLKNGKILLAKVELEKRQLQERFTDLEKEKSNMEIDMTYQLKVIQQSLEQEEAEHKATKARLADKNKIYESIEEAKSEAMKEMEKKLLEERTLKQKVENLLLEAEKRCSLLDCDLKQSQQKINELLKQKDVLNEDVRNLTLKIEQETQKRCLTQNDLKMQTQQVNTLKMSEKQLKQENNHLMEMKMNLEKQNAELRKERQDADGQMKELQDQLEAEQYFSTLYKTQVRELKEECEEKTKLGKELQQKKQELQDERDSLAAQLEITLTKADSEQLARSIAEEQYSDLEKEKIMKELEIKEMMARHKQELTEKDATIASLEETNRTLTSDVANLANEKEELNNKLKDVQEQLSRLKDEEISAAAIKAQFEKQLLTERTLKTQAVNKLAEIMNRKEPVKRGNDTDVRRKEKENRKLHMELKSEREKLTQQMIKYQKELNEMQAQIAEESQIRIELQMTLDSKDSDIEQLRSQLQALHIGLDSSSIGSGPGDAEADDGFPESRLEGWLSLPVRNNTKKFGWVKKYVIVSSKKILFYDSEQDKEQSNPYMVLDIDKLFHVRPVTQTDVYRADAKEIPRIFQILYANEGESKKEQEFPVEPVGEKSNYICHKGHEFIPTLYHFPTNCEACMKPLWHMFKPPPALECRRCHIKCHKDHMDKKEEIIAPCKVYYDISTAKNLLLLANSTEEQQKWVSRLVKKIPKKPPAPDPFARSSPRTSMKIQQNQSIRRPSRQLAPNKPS
T1 sequence (P07947 whole entry): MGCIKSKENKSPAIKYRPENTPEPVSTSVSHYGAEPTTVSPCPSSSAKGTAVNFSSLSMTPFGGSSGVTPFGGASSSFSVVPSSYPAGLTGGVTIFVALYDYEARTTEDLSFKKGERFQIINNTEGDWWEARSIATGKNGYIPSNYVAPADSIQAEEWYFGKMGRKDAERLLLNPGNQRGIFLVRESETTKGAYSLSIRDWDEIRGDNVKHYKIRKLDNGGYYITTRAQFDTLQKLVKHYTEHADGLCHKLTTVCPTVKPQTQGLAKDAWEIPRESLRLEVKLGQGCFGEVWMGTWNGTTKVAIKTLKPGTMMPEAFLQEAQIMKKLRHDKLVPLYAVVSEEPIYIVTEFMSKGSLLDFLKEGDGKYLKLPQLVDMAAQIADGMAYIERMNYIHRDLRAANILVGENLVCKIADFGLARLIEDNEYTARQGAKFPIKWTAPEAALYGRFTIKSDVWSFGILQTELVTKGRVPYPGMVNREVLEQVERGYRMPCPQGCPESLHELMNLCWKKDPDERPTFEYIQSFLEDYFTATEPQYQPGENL
Chain of PAR-1Bα(h) (Q7KZI7 1-725 isoform Q7KZI7-4): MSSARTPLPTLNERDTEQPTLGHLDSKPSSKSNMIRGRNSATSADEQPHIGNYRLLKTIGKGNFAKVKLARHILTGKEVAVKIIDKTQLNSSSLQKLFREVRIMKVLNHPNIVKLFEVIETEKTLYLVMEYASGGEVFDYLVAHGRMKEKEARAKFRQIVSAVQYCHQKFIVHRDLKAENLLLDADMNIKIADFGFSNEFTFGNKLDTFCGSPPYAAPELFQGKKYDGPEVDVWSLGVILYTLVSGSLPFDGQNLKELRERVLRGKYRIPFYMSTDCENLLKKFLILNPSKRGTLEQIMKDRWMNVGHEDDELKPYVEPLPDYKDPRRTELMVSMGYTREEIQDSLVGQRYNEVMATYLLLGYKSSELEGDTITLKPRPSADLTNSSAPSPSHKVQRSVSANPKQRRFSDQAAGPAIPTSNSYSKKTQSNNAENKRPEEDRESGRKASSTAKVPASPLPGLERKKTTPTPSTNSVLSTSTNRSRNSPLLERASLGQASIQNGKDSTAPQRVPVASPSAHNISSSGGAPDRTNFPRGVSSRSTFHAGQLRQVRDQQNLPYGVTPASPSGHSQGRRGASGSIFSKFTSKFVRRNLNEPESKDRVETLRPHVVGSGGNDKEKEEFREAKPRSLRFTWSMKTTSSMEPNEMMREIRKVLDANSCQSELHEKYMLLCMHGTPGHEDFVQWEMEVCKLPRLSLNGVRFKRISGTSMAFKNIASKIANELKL
Chain of IGF-1R(h) (P08069 31-1367): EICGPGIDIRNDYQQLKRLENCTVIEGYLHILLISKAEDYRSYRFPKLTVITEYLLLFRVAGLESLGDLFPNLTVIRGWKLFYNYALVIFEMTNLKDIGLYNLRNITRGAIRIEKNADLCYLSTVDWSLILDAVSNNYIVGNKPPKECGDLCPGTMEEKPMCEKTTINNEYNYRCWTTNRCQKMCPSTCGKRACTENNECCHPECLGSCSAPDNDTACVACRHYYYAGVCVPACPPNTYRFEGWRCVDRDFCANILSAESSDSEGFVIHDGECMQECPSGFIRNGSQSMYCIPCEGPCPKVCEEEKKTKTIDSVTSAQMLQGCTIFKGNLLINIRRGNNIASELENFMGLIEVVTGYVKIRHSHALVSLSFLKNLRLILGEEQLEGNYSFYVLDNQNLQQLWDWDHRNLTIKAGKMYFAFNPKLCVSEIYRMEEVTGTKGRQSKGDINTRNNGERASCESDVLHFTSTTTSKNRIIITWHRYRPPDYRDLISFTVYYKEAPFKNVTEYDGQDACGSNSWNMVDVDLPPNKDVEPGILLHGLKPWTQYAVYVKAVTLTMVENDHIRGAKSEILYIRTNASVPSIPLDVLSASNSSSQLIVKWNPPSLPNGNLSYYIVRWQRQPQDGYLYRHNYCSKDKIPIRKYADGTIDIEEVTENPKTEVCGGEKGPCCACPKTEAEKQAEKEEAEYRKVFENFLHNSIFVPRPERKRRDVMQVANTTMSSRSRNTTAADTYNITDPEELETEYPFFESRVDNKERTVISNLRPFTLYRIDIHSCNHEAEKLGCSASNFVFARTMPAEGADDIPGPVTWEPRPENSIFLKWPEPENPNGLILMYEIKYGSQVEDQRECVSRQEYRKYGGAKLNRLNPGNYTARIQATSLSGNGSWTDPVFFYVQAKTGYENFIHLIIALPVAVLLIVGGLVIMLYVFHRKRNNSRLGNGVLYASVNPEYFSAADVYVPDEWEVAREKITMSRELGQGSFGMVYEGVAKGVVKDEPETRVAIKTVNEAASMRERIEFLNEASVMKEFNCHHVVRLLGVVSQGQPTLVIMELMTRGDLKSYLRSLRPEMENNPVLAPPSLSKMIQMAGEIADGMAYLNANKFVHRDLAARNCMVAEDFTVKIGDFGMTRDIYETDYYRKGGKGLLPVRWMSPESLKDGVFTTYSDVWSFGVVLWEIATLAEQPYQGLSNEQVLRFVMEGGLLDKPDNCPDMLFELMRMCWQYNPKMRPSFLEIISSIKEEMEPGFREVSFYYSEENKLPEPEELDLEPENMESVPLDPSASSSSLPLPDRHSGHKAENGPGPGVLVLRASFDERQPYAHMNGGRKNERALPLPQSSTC

Activity at Protein Kinase Assays (% of control), Yes(h) (Yes(h))	Activity at Protein Kinase Assays (% of control), ROCK-II(h) (ROCK-II(h))	Activity at Protein Kinase Assays (% of control), IGF-1R(h) (IGF-1R(h))	Activity at Protein Kinase Assays (% of control), ZAP-70(h) (ZAP-70(h))	Activity at Protein Kinase Assays (% of control), TrkB(h) (TrkB(h))	Activity at Protein Kinase Assays (% of control), Flt3(h) (Flt3(h))	Activity at Protein Kinase Assays (% of control), PAR-1Bα(h) (PAR-1Bα(h))	Activity at Protein Kinase Assays (% of control), PDK1(h) (PDK1(h))	Activity at Protein Kinase Assays (% of control), CDK6/cyclinD3(h) (CDK6/cyclinD3(h))	SMILES
58 % of control	107 % of control	42 % of control	115 % of control	105 % of control	77 % of control	96 % of control	107 % of control	82 % of control	O=C1NC(=O)C2=C1c1cn(c3ccccc13)CCCc1cc(nc(N3CCCC3)c1)CCCn1cc2c2ccccc21 [Cpd 6, 20-pyrrolidin-1-yl-4,14,19,26-tetraazaheptacyclo[24.6.1.1^7,14.1^18,22.0^2,6.0^8,13.0^27,32]pentatriaconta-1(33),2(6),7(35),8,10,12,18(34),19,21,27,29,31-dodecaene-3,5-dione]
43 % of control	104 % of control	106 % of control	121 % of control	106 % of control	85 % of control	101 % of control	100 % of control	92 % of control	O=C1NC(=O)C2=C1c1cn(c3ccccc13)CCCc1ccc(c(N3CCCC3)n1)CCCn1cc2c2ccccc21 [Cpd 7, 31-pyrrolidin-1-yl-5,15,25,30-tetraazaheptacyclo[27.2.2.1^5,12.1^18,25.0^6,11.0^13,17.0^19,24]pentatriaconta-1(31),6,8,10,12(35),13(17),18(34),19,21,23,29,32-dodecaene-14,16-dione]
79 % of control	103 % of control	37 % of control	103 % of control	98 % of control	71 % of control	100 % of control	104 % of control	74 % of control	CN(C)c1cc2cc(n1)CCCn1cc(c3ccccc31)C1=C(C(=O)NC1=O)c1cn(c3ccccc13)CCC2 [Cpd 2, 20-(dimethylamino)-4,14,19,26-tetraazaheptacyclo[24.6.1.1^7,14.1^18,22.0^2,6.0^8,13.0^27,32]pentatriaconta-1(33),2(6),7(35),8,10,12,18(34),19,21,27,29,31-dodecaene-3,5-dione]
96 % of control	110 % of control	84 % of control	113 % of control		86 % of control	94 % of control	115 % of control	86 % of control	CN(C)c1nc2ccc1CCCCn1cc(c3ccccc31)C1=C(C(=O)NC1=O)c1cn(c3ccccc13)CCC2 [Cpd 1, 31-(dimethylamino)-5,15,25,32-tetraazaheptacyclo[28.2.2.1^5,12.1^18,25.0^6,11.0^13,17.0^19,24]hexatriaconta-1(32),6,8,10,12(36),13(17),18(35),19,21,23,30,33-dodecaene-14,16-dione]
